Measurements as given in ChEMBL document CHEMBL5625191, “A review of progress in o-aminobenzamide-based HDAC inhibitors with dual targeting capabilities for cancer therapy” (Eur J Med Chem, 2023).
pIC50: −log10 of the molar value.

Legend:
[1] = target: Histone deacetylase; assay: Inhibition of HDAC (unknown origin); type: protein assay, Homo sapiens
[2] = test system: K562; assay: Antiproliferative activity against human K562 cells assessed as inhibition of cell growth by MTT assay; type: functional, cell-based
[3] = test system: HCT-116; assay: Antiproliferative activity against human HCT-116 cells assessed as inhibition of cell growth; type: functional, cell-based
[4] = test system: KYSE-450; assay: Antiproliferative activity against human KYSE-450 cells assessed as inhibition of cell growth; type: functional, cell-based
[5] = target: T1, Histone deacetylase 1 (Homo sapiens, UniProt Q13547); assay: Inhibition of HDAC1 (unknown origin)
[6] = target: Tubulin; assay: Inhibition of tubulin polymerization (unknown origin); type: protein-complex assay, Homo sapiens
[7] = test system: MGC-803; assay: Antiproliferative activity against human MGC-803 cells assessed as inhibition of cell growth; type: functional, cell-based
[8] = target: T2, Histone deacetylase 2 (Homo sapiens, UniProt Q92769); assay: Inhibition of HDAC2 (unknown origin)
[9] = test system: HCT-116; assay: Antitumor activity against human HCT-116 cells xenografted in BALB/c mouse assessed tumor growth inhibition at 150 mg/kg, po bid measured for every 3 days; type: functional; settings: HCT-116, 72 h, time 3 day, read-out: TGI
[10] = test system: MCF7; assay: Antiproliferative activity against human MCF7 cells assessed as inhibition of cell growth incubated for 48 hrs by CCK-8 assay; type: functional, cell-based; settings: MCF7, 48 h
[11] = test system: Jurkat; assay: Antiproliferative activity against human Jurkat cells assessed as inhibition of cell growth incubated for 48 hrs by MTT assay; type: functional, cell-based
[12] = test system: HCT-116; assay: Antitumor activity against human HCT-116 cells xenografted in BALB/c nude mouse assessed as increase in increment ratio at 30 mg/kg, po administered for 3 days; type: functional; settings: time 3 day
[13] = target: T2, Histone deacetylase 2; assay: Inhibition of HDAC2 in human HeLa nuclear extract using Boc-Lys(Ac)-AMC or Boc-Lys(Tfa)-AMC as substrate preincubated for 5 mins followed by substrate addition and measured after 30 mins by fluorescence assay; type: cell-free
[14] = test system: MOLT-4; assay: Antiproliferative activity against human MOLT-4 cells assessed as inhibition of cell growth incubated for 48 hrs by MTT assay; type: functional, cell-based; settings: MOLT-4, 48 h
[15] = test system: HEL; assay: Antiproliferative activity against human HEL cells assessed as inhibition of cell growth incubated for 48 hrs by MTT assay; type: functional, cell-based
[16] = test system: HCT-116; assay: Antiproliferative activity against human HCT-116 cells assessed as inhibition of cell growth incubated for 48 hrs by MTT assay; type: functional, cell-based; settings: HCT-116, 48 h
[17] = target: T1, Histone deacetylase 1; assay: Inhibition of HDAC1 in human HeLa nuclear extract using Boc-Lys(Ac)-AMC or Boc-Lys(Tfa)-AMC as substrate preincubated for 5 mins followed by substrate addition and measured after 30 mins by fluorescence assay; type: cell-free
[18] = target: Histone deacetylase 3 (Homo sapiens, UniProt O15379); assay: Inhibition of HDAC3 in human HeLa nuclear extract using Boc-Lys(Ac)-AMC or Boc-Lys(Tfa)-AMC as substrate preincubated for 5 mins followed by substrate addition and measured after 30 mins by fluorescence assay; type: cell-free
[19] = test system: HCT-116; assay: Antitumor activity against human HCT-116 cells xenografted in BALB/c nude mouse assessed as tumor growth inhibition at 30 mg/kg, po administered for 3 days; type: functional; settings: HCT-116, 72 h, time 3 day, read-out: TGI
[20] = test system: PC-3; assay: Antiproliferative activity against human PC-3 cells assessed as inhibition of cell growth incubated for 48 hrs by MTT assay; type: functional, cell-based; settings: PC-3, 48 h
[21] = test system: A549; assay: Antiproliferative activity against human A549 cells assessed as inhibition of cell growth incubated for 48 hrs by MTT assay; type: functional, cell-based; settings: A549, 48 h
[22] = test system: HeLa; assay: Antiproliferative activity against human HeLa cells assessed as inhibition of cell growth incubated for 48 hrs by MTT assay; type: functional, cell-based
[23] = Antiproliferative activity against human Bortezomib-resistant RPMI-8226 cells assessed as inhibition of cell growth incubated for 72 hrs by XTT assay; type: functional, cell-based; settings: Bortezomib-resistant RPMI-8226, 72 h
[24] = test system: RPMI-8226; assay: Antiproliferative activity against human RPMI-8226 cells assessed as inhibition of cell growth incubated for 72 hrs by XTT assay; type: functional, cell-based; settings: RPMI-8226, 72 h
[25] = target: Histone deacetylase (Homo sapiens) (UniProt Q13547+O15379+Q9UBN7+Q92769+Q9UQL6+Q8WUI4+Q9BY41+Q96DB2+P56524+Q9UKV0+Q969S8); assay: Inhibition of HDAC in human RPMI-8226 cells at 10 uM incubated for 8 hrs relative to control; type: cell-based
[26] = test system: K562; assay: Antiproliferative activity against human K562 cells assessed as inhibition of cell growth incubated for 48 hrs by MTT assay; type: functional, cell-based; settings: K562, 48 h
[27] = target: Histone deacetylase; assay: Inhibition of HDAC in human HeLa nuclear extract using Boc-Lys(Ac)-AMC or Boc-Lys(Tfa)-AMC as substrate preincubated for 5 mins followed by substrate addition and measured after 30 mins by fluorescence assay; type: cell-free
[28] = target: Ephrin type-A receptor 2 (Homo sapiens, UniProt P29317); assay: Inhibition of EphA2 (unknown origin) incubated for 30 mins by TR-FRET assay
[29] = test system: NCI-H2228; assay: Antiproliferative activity against human NCI-H2228 cells assessed as inhibition of cell growth incubated for 72 hrs by CCK-8 assay; type: functional, cell-based; settings: NCI-H2228, 72 h
[30] = test system: A549; assay: Antiproliferative activity against human A549 cells assessed as inhibition of cell growth incubated for 72 hrs by CCK-8 assay; type: functional, cell-based; settings: A549, 72 h
[31] = test system: SK-N-BE(2); assay: Antiproliferative activity against human SK-N-BE(2) cells assessed as inhibition of cell growth incubated for 72 hrs by CCK-8 assay; type: functional, cell-based; settings: SKNBE2, 72 h
[32] = test system: HepG2; assay: Antiproliferative activity against human HepG2 cells assessed as inhibition of cell growth incubated for 72 hrs by CCK-8 assay; type: functional, cell-based; settings: HepG2, 72 h
[33] = Antiproliferative activity against human MET-1 cells assessed as inhibition of cell growth; type: functional, cell-based
[34] = test system: SK-MEL-1; assay: Antitumor activity against human SK-MEL-1 cells assessed as tumor growth inhibition at 30 mg/kg, ip administered for 28 days; type: functional; settings: SK-MEL-1, 672 h, time 28 day, read-out: TGI
[35] = Antiproliferative activity against human SCCIC1 cells assessed as inhibition of cell growth; type: functional, cell-based

T1 sequence (Q13547 whole entry): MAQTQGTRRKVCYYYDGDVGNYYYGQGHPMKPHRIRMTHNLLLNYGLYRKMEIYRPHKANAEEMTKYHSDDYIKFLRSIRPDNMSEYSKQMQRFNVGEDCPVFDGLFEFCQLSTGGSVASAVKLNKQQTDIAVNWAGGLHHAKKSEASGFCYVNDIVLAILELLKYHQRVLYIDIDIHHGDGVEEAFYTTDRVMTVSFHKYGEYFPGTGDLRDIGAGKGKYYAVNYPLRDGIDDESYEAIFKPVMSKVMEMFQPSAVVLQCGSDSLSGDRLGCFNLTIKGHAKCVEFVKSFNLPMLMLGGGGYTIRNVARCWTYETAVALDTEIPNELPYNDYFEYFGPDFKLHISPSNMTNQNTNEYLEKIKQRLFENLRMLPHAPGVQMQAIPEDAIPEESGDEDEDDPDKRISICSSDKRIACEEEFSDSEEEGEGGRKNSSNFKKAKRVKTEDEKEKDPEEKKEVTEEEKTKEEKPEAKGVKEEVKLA
T2 sequence (Q92769 whole entry): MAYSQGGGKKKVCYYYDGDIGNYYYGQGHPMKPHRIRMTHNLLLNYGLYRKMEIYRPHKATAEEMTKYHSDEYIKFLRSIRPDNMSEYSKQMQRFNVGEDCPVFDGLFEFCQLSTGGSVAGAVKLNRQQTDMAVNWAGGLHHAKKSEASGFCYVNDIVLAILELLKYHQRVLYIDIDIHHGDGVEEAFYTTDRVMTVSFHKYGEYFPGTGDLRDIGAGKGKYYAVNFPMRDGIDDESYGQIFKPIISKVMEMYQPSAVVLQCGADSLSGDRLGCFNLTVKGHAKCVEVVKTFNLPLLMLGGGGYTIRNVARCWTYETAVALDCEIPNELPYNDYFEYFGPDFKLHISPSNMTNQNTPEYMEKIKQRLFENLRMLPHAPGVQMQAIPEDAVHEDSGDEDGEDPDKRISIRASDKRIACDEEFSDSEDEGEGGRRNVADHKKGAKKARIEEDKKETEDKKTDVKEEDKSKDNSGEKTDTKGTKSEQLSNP
Chain of Ephrin type-A receptor 2 (P29317 whole entry): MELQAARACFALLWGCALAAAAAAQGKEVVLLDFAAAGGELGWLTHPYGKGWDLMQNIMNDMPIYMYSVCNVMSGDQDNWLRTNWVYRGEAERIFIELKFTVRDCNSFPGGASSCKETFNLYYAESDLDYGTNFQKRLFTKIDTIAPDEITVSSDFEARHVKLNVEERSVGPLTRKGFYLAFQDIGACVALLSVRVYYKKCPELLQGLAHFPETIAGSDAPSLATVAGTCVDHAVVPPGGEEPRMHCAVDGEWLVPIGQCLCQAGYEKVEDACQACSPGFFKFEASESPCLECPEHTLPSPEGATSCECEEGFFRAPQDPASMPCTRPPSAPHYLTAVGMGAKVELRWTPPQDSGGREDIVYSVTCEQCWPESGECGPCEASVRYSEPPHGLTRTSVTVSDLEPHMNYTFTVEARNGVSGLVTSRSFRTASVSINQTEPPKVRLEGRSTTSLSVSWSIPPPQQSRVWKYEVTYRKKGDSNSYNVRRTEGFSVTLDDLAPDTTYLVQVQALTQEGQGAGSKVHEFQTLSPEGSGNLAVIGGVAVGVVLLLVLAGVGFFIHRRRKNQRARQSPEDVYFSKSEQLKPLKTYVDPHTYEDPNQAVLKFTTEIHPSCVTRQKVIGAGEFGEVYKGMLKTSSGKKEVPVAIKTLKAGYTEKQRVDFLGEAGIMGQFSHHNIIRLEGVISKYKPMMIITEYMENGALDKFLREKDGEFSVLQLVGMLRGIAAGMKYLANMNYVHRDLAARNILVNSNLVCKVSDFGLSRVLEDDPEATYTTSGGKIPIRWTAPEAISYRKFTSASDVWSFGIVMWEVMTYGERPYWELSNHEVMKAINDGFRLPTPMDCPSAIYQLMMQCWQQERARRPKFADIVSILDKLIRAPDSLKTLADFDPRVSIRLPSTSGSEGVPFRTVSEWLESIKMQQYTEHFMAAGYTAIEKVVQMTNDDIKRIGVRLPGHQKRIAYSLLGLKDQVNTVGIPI
Chain of Histone deacetylase 3 (O15379 whole entry): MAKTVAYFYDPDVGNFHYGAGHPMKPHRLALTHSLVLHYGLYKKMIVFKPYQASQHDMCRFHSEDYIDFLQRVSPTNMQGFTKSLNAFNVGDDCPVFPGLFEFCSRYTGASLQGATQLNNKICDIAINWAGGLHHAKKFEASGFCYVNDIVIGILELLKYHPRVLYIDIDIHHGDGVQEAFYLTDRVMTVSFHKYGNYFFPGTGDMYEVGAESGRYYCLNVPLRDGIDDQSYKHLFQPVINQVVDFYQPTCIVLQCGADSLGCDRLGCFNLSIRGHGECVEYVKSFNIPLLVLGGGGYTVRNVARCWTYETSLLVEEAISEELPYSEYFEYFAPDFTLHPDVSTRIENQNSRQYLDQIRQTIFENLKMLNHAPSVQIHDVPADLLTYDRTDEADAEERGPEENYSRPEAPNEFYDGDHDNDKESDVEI

CCN1CCN(c2cc(Nc3ncc(C(=O)Nc4ccc(F)cc4N)s3)ncn2)CC1
IC50 [1]: 810 nM | pIC50 [2]: 5.58

COc1ccc(CN(C(=O)Cc2ccc(C(=O)Nc3ccccc3N)cc2)c2cc(OC)c(OC)c(OC)c2)cc1O
pIC50 [3]: 6.76 | pIC50 [4]: 6.60 | pIC50 [5]: 6.28 | pIC50 [6]: 5.44 | pIC50 [7]: 7.52

COc1ccc2[nH]c3c(c2c1)CCN1C(=O)c2cc(NCc4ccc(C(=O)Nc5ccccc5N)cc4)ccc2N(C)[C@H]31
pIC50 [3]: 5.11 | pIC50 [5]: 5.58 | pIC50 [8]: 5.03

CN1c2ccccc2C(=O)N2[C@H](C(=O)Nc3ccc(C(=O)Nc4ccccc4N)cc3)Cc3c([nH]c4ccccc34)[C@@H]12
inhibition in vivo at 150 mg/kg [9]: 75.2% | pIC50 [10]: 7.74

Nc1ccccc1NC(=O)CCCCOc1no[n+]([O-])c1S(=O)(=O)c1ccccc1
pIC50 [11]: 6.27 | T/C [12]: 57% | pIC50 [13]: 5.84 | pIC50 [14]: 6.23 | pIC50 [15]: 6.49 | pIC50 [16]: 6.03 | pIC50 [17]: 6.21 | pIC50 [18]: 6.21 | inhibition in vivo at 30 mg/kg [19]: 36% | pIC50 [20]: 5.57 | pIC50 [21]: 5.99 | pIC50 [22]: 5.91

CCN1CCN(c2cc(Nc3ncc(C(=O)Nc4ccccc4N)s3)ncn2)CC1
IC50 [1]: 15000 nM

CC(C)C[C@@H](NC(=O)[C@H](Cc1ccccc1)NC(=O)c1ccc(C(=O)Nc2ccccc2N)cc1)B1OC2CC3CC(C3(C)C)[C@@]2(C)O1 (stereo partly drawn)
pIC50 [23]: 6.95 | pIC50 [24]: 7.43 | inhibition [25]: 33%

Nc1ccccc1NC(=O)Nc1ccc(NC(=O)c2cccnc2)cc1
pIC50 [26]: 5.08 | IC50 [27]: 940 nM | pIC50 [28]: 6.17

CC(C)S(=O)(=O)c1ccccc1Nc1nc(Nc2ccc(C(=O)Nc3ccccc3N)cc2)ncc1Cl
pIC50 [29]: 6.96 | pIC50 [30]: 8.70 | pIC50 [31]: 8.52 | pIC50 [32]: 8.00

Nc1ccccc1NC(=O)c1ccc(CCCC(=O)Nc2ccc([C@@H]3C[C@H]3N)cc2)cc1
pIC50 [33]: 8.22 | inhibition in vivo at 30 mg/kg [34]: 61% | pIC50 [35]: 7.39
